Experiments:
p97 = p97 (Homo sapiens, UniProt P55072); experiment: p97 ADP Glo ATPase biochemical assay; conditions: 20 nM p97, 20 uM ATP, 37 deg C, 15 min; read-out: 97 ADP Glo Assay: IC50
Description: The ATPase assay is performed according the following protocol: Purified enzyme (20 nM p97), substrate (20 μM ATP) and a dose titration of compounds are mixed in buffer (50 mM TRIS pH 7.5, 20 mM MgCl2, 0.02% TX-100, 1 mM DTT, 0.2% (v/v) glycerol) and incubated at 37° C. for 15 minutes. The reaction is terminated and the level of product generated is measured using the ADP Glo Assay Kit (Promega, Madison Wis.). Plotting product generated versus compound concentration and using a four-parameter fit model generates an IC50 value for each compounds.
The p97 assay is an initial screening assay used to determine inhibitory activity of the compounds of the invention against the p97 complex. As discussed above, inhibition of activity of the p97 proteosome complex can enable apoptosis and cause elimination of neoplastic cells (cancer cells). The method follows that of Christianson in Nat. Cell Biol., (2011) 14:93.
Assay Buffer is a mixture of 50 mM TRIS pH 7.5, 20 mM MgCl2, 0.02% TX-100, 1 mM DTT and 0.2% (v/v) Glycerol. The well plate is Platetype: Corning 3674, 384 w plate. The identification kit is an ADP glo kit (Promega): stop buffer, detection reagent.
Serial dilute compound in DMSO in a 1:3.33-fold 10 point serial dilution.
in each well of 384 w plate add the following reagents:
0.5 μL compound serial diluted in DMSO (Final Conc. 10%)
2 μL ATP (Final Conc.=20 uM, diluted in assay buffer)
2.5 μL p97 (Final Conc.=20 nM, diluted in assay buffer)
Incubate at 37 deg C. for 15 min.
Add 5μ of stop buffer, incubate at RT for 40 min.
Add 10 μL of detection reagent, incubate at RT for 30 min.
Read luminescence on Envision plate reader.
Normalize luminescence data using no enzyme (full inhibition) and no compound (no inhibition) controls. Plot normalized luminescence data against log-transformed concentration values and fit to a sigmoidal curve to determine IC50 values (done in Collaborative Drug Discovery software).

A549 cells = experiment: A549 CellTitre Glo viability assay; assay type: cell-based; conditions: Homo sapiens, 72 hr incubation
Excerpt: Anti-tumor effects are monitored in cultured cancer cells after several days of compound treatment. The cell titer glo assay (Promega) measures the amount of ATP present as a proxy for cellular viability. Cellular counting is done using high-content microscopy followed by image analysis. A hanging drop 3D-culture system (3D Biomatrix) is used followed by cell titer glo to measure growth in a tumor-like environment.
The cellular assay provides information about the anti-neoplastic activity of the compounds of the invention. The compounds are tested against cultured cancer cells to determine whether or not the compounds of the invention are capable of intersecting with cancer cells to minimize or eliminate such cells. The assay involves establishing colonies of such cells and then treating them with the test compound under specified conditions and analysis regima to determine results.
(§1) Plate 25 μL of A549 cells in every well of 384-well plate using multidrop. • Two (2) black plates for IF at 2500 cells/well • Let plate sit at room temp for 10-15 minutes prior to putting in incubator to allow cells to stick in middle of plate. • One (1) white plate for viability at 500 cells/well.
(§2) Treat Cells: • Serial dilute compounds with a 10 point 2-fold serial dilution in DMSO to make 250× stock compound solution • Dilute compounds 1:125 in cell culture media to make a 2× solution Add 25 μL of dilution compounds to cell plates in well duplicates
Put cells back in incubator (6 hr incubation for black plates, 72 hr incubation for white plates).
Thaw an aliquot of frozen cell titer glo (Promega G7572) at room temperature.
Add 45 mL of NaCl/PBS solution to 5 ml of cell titer glo (10×).
Remove white plates from incubator, leave at room temp for 30 minutes.
Add 25 μL of diluted cell titer glo to each well.
Shake plate for >1 minute.
Incubate plate for >5 minutes to stabilize luminescence.
Read luminescence on plate reader

K48-Ub in A549 cells = experiment: A549 K48 cell intensity (K48 poly-ubiquitin immunofluorescence); assay type: cell-based; conditions: Homo sapiens, 6 hr incubation
Description: Image-analysis is used to generate quantitative data from these assays that can be fit to a four-parameter sigmoid curve to derive IC50 values. Substrates of the ubiquitin-proteasome system, such as p53, are monitored after tumor cell lines are incubated with compounds for several hours. Accumulation of these proteins indicates an inhibition of proteasome-mediated degradation. Accumulation of lysine-48 chain linkage of poly-ubiquitin is also monitored by immunofluorescence as an indicator of ubiquitin-proteasome system inhibition. Both LC3 and SQSTM1 are mediators of autophagy. The localization and amounts of these proteins are monitored by immunofluorescence and report on the activity and inhibition of autophagy in response to p97 inhibition.
as §1
as §2, with “duplicates Put cells back in incubator (6 hr incubation for black plates, 72 hr incubation for white plates).” for “duplicates”
Incubate cells in black plates with compound at 37 deg C. for 6 hrs. add 15 μL of 16% Paraformaldehyde (PFA) directly into media of each well, • incubate at room temp for 5 min, flick plate and wash in 50 µL of PBS block in 50 μL of Blocking Buffer for 30 minutes (can go up to several hours) • Blocking buffer: 1×PBS, 1% BSA, 0.3% Triton-X100, Hoechst (1:10,000) incubate in 25 μL of primary antibody in blocking buffer at 4 deg C. over night […]
Secondary Antibodies: • AlexaFluor488 Goat anti-Rabbit 1:2,000 (Life Tech A11008) • AlexaFluor555 Goat anti-Mouse 1:2,000 (Life Tech A21422) wash black plates 3× in 50 μL PBS (˜5 min each) • incubate in 25 μL of secondary antibody (1:2,000) in blocking buffer for 1-2 hrs at room temp (alexafluor488-anti-Rabbit/alexafluor555-anti-Mouse) Image plates in high content microscope with 405 nm, 488 nm and 555 nm filters Data Analysis: • Nuclear counts and cellular intensities of each markers are measured using Hoechst as a nuclear marker with an automated image analysis protocol using Matlab software (Math Works)

Caco-2 cell monolayer = conditions: pH 7.4, range over 12 inter-day experiments

p97, sequence (P55072 whole entry): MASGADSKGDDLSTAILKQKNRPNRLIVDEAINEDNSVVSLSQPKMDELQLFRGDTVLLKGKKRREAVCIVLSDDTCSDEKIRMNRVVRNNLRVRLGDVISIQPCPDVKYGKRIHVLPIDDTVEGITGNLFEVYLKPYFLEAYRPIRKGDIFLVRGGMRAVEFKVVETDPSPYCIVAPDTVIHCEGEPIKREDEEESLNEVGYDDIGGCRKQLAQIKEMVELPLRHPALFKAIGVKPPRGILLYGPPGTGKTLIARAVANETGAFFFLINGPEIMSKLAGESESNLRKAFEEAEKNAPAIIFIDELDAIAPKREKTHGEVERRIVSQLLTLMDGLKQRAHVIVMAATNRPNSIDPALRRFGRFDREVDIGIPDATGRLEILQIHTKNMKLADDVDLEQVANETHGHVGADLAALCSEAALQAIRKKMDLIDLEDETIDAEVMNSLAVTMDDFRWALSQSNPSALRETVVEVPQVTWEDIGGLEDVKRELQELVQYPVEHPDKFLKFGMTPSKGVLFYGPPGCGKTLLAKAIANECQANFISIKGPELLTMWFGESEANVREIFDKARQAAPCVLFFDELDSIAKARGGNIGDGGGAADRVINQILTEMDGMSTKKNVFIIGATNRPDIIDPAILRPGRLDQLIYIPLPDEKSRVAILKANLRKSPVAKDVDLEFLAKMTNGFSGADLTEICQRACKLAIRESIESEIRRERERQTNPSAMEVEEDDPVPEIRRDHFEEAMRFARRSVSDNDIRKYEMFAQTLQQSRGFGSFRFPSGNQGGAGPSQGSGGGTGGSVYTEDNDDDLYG

Work on `Cc1cc2c(C(N)=O)cccc2n1-c1nc(NCc2ccccc2)c2c(n1)C1CCCCN1CC2` (centres unmarked) [Compound 001, 1-(4-(benzylamino)-6,8,9,10,11,11a-hexahydro-5H-pyrimido[4,5-a]quinolizin-2-yl)-2-methyl-1H-indole-4-carboxamide] yielded an IC50 (p97) of 16 nM, an IC50 (A549 cells) of 1340 nM and an IC50 (K48-Ub in A549 cells) of 736 nM.
`Cc1cc2c(C(N)=O)cccc2n1-c1nc(NCc2ccccc2)c2c(n1)C1CCCN1CC2` (centres unmarked) [Compound 002, 1-(4-(benzylamino)-5,6,8,9,10,10a-hexahydropyrimido[5,4-g]indolizin-2-yl)-2-methyl-1H-indole-4-carboxamide] gave an IC50 (p97) of 15 nM, an IC50 (A549 cells) of 2690 nM and an IC50 (K48-Ub in A549 cells) of 6620 nM.
`Cc1cc2c(C(N)=O)cccc2n1-c1nc2c(c(NCc3ccccc3)n1)CN1CCCCC1C2` (centres unmarked) [Compound 003, 1-(4-(benzylamino)-7,8,9,10,10a,11-hexahydro-5H-pyrimido[4,5-b]quinolizin-2-yl)-2-methyl-1H-indole-4-carboxamide] gave an IC50 (p97) of 25 nM, an IC50 (A549 cells) of 2340 nM and an IC50 (K48-Ub in A549 cells) of 642 nM.
In the case of `Cc1cc2c(C(N)=O)cccc2n1-c1nc2c(c(NCc3ccccc3)n1)CN1CCCC1C2` (centres unmarked) [Compound 004, 1-[4-(Benzylamino)-5,7,8,9,9a,10-hexahydropyrimido[5,4-f]indolizin-2-yl]-2-methyl-indole-4-carboxamide], the IC50 (p97) is reported as 19 nM, the IC50 (A549 cells) is reported as 1120 nM and the IC50 (K48-Ub in A549 cells) is reported as 273 nM.
In the case of `CC(C)NCC(O)COc1cccc2ccccc12` (centres unmarked) [Propranolol], the “Peff in pH 7.4 Caco-2, A B, Range” value (Caco-2 cell monolayer; A to B) is reported as 18.50-36.80 x E−6 cm/sec and the “Peff in pH 7.4 Caco-2, B A, Range” value (Caco-2 cell monolayer; B to A) is reported as 16.30-31.40 x E−6 cm/sec.
